According to patent US4970205A, “Sulfonic acid substituted aromatic steroids as inhibitors of steroid 5-α-reductase” (SmithKline Beecham Corporation, priority 1988, dated 1990):
Read-outs that look alike come from different tables or passages of the source.

Experiments:
[1] = molecular target: T1, human steroid 5-α-reductase (Homo sapiens, UniProt P31213); assay: inhibition of human steroid 5-α-reductase using tissue from hyperplastic human prostates ([14C]-testosterone conversion, Dixon plot); format: biochemical; conditions: human prostatic particulate, pH 5.0, 37° C., 20 to 30 minutes; competitive against testosterone assumed
T1 construct: Frozen human prostates were thawed and minced into small pieces; from tissue; host or cells: hyperplastic human prostate, 140,000 x g particulate fraction
T1 sequence (P31213 1-254): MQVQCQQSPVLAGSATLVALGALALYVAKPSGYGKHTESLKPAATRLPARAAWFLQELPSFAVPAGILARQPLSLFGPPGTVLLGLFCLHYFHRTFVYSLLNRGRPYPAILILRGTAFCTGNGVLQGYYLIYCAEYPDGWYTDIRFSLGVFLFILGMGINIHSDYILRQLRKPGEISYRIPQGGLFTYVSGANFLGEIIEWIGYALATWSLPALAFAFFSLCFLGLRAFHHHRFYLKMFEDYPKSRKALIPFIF
Method: A compound of the invention, potassium 17b-(N,N-diisopropylcarboxamide)-estr-1,3,5(10)-triene-3-sulfonate, was tested for potency in inhibiting human steroid 5-α-reductase using tissue from hyperplastic human prostates. In determining potency in inhibiting the human enzyme, the following procedure was employed:
Frozen human prostates were thawed and minced into small pieces (5 mm^3). The tissue was homogenized in 3 to 5 volumes of 20 mM potassium phosphate buffer, pH 6.5, containing 0.33 M sucrose, 1 mM dithiothreitol, and […] with a Brinkmann Polytron (Sybron Corporation, Westbury, N.Y.). The solution was subjected to sonication for 3 to 5 minutes with a Sonifier (Branson Sonic Power Co.) followed by hand homogenization in a glass-to-glass Dounce homogenizer (Kontes Glass Company, Vineland, N.J.). […]
A constant amount of [^14 C]-testosterone (52 to 55 mCi/mmol, New England Nuclear, Boston, Mass.) in ethanol and varying amounts of the potential inhibitor in ethanol were deposited in test tubes and concentrated to dryness in a SAVANT Speed Vac. […] The radiochemical content in the bands of the substrate and the products was determined with a BIOSCAN Imaging Scanner (Bioscan, Inc., Washington, D.C.). The percent of recovered radiolabel converted to product was calculated, from which enzyme activity was determined. […]

steroid 5-α-reductase = conditions: cited from earlier work; for Ki / reversibility of inhibition (with Ki): Table I; for time-dependence of 5-α-reductase inhibition: footnote text of Table I

Row | Compound | Ki [1] [nM] | Ki (steroid 5-α-reductase) [nM] | reversibility of inhibition (with Ki) (steroid 5-α-reductase) | time-dependence of 5-α-reductase inhibition (steroid 5-α-reductase) | Ki (steroid 5-α-reductase; unit inferred) [nM]
1 | CC(C)N(C(=O)[C@H]1CC[C@H]2[C@@H]3CCc4cc(S(=O)(=O)O)ccc4[C@H]3CC[C@]12C)C(C)C [Potassium 17β-(N,N-Diisopropylcarboxamide)-estr-1,3,5(10)-triene-3-sulfonate] | 10 | – | – | – | –
2 | C=C1CC2C(CCC3(C)C2CCC3(OC(C)=O)C(C)=O)C2(C)CCC(=O)C=C12 (stereo not shown) [(5)] | – | 1250 | Irreversible | time-dependent inactivator | –
3 | CCN(CC)C(=O)C1CCC2C3CCC4N(C)C(=O)CCC4(C)C3CCC12C (stereo not shown) [(4)] | – | 5 | Reversible | – | –
4 | CC12CCC(=O)C=C1CCC1C2CCC2(C)C(C(=O)O)CCC12 (stereo not shown) [(1)] | – | 1100 | Reversible | – | –
5 | CC(CO)C1CCC2C3CCC4C(=[N+]=[N-])C(=O)CCC4(C)C3CCC12C (stereo not shown) [(3)] | – | – | Irreversible | potent, time-dependent | 35
6 | CC(=O)C1CCC2C3CC=C=CC(=O)CCC(=O)C3CCC12C (stereo not shown) [(2)] | – | 1000 | Irreversible | – | –
